According to patent US20130281504A1, “Reduction of Microglia-Mediated Neurotoxicity by KCa3.1 Inhibition” (THE REGENTS OF THE UNIVERSITY OF CALIFORNIA, priority 2010, published 2013):
Where “and” joins values, the source holds several entries; their conditions need not be identical. Equal entries are not always repeated.

Assays:
[1] = system: middle cerebral artery occlusion (MCAO); assay: MCAO with 7 days of reperfusion, treatment started 2 h after reperfusion; type: in vivo, rat; settings: 10 mg/kg twice daily 7 days from 2 h after reperfusion
Excerpt: Adult male Wistar rats weighing 160-180 g were purchased from Charles River (Wilmington, Mass.), acclimatized to the new vivarium for 5-7 days and used for the surgery when they weighed 200-230 g. Rats were anesthetized using box induction with 5% isoflurane and then maintained on 0.5%-1.5% isoflurane in medical grade oxygen via a facemask. In order to assure consistent reduction of cerebral blood flow (CBF) throughout the procedure, we affixed a small hand-made adaptor for the Laser Doppler probe (Moor Instruments, Wilmington, Del.) to the surface of the skull. The center of the adapter was 5 mm lateral to the central fusion line and 2.5 mm posterior to bregma. […] Neurological deficits were scored according to a 4-score test and a tactile and/or proprioceptive limb-placing test as follows: 1) 4-score test (higher score for more severe neurological deficits): 0=no apparent deficit; 1=contralateral forelimb is consistently flexed during suspension by holding the tail; 2=decreasing grip ability on the contralateral forelimb while tail pulled; 3=spontaneous movement in all directions but circling to contralateral side when pulled by the tail; 4=spontaneous contralateral circling or depressed level of consciousness. […] The paw was pulled down and away from the platform edge, and the ability to retrieve and place the paw on the table surface upon sudden release was assessed. […]

[2] = system: middle cerebral artery occlusion (MCAO); assay: MCAO with 7 days of reperfusion, treatment started 12 h after reperfusion; type: in vivo, rat; set-up: key to neurological deficit, 4-score system: 0 = no deficit to 4 = most severe deficit; key to neurological deficit, 14-score system: 14-point limb placing score; lower = more severe deficit; settings: for mean infarct size (H&E defined lesion area): controls 22.6±3.6%
Excerpt: Adult male Wistar rats weighing 160-180 g were purchased from Charles River (Wilmington, Mass.), acclimatized to the new vivarium for 5-7 days and used for the surgery when they weighed 200-230 g. Rats were anesthetized using box induction with 5% isoflurane and then maintained on 0.5%-1.5% isoflurane in medical grade oxygen via a facemask. In order to assure consistent reduction of cerebral blood flow (CBF) throughout the procedure, we affixed a small hand-made adaptor for the Laser Doppler probe (Moor Instruments, Wilmington, Del.) to the surface of the skull. The center of the adapter was 5 mm lateral to the central fusion line and 2.5 mm posterior to bregma. Instant adhesive and dental cement were applied to the base and around the edges of the small plastic adapter to hold the Doppler probe. The adapter with the attached probe remained in place throughout the MCAO surgery to confirm continuous occlusion and later the establishment of reperfusion. Focal cerebral ischemia was then induced by occlusion of the left middle cerebral artery (MCA). The left common carotid artery was surgically exposed, the external carotid artery was ligated distally from the common carotid artery, and a silicone rubber coated nylon monofilament with a tip diameter of 0.43±0.02 mm (Doccol Corp., Redlands, Calif.) was inserted into the external carotid artery and advanced into the internal carotid artery to block the origin of the middle cerebral artery (when maximum CBF reduction observed). The filament was kept in place for 90 min and then withdrawn and removed from the blood vessel to restore blood supply. […] Neurological deficits were scored according to a 4-score test and a tactile and/or proprioceptive limb-placing test as follows: 1) 4-score test (higher score for more severe neurological deficits): 0=no apparent deficit; 1=contralateral forelimb is consistently flexed during suspension by holding the tail; 2=decreasing grip ability on the contralateral forelimb while tail pulled; 3=spontaneous movement in all directions but circling to contralateral side when pulled by the tail; 4=spontaneous contralateral circling or depressed level of consciousness. 2) 14-score limb placing test (lower score for more severe neurological deficits): Proprioception, forward extension, lateral abduction, and adduction were tested with vision or tactile stimuli. For visual limb placing, rats were held and slowly moved forward or lateral toward the top of a table. Normal rats placed both forepaws on the tabletop. Tactile forward and lateral limb placing were tested by lightly contacting the table edge with the dorsal or lateral surface of a rat's paw while avoiding whisker contact and covering the eyes to avoid vision. For proprioceptive hind limb placing, each rat was pushed along the edge of an elevated platform in order to test proprioceptive hind limb adduction. The paw was pulled down and away from the platform edge, and the ability to retrieve and place the paw on the table surface upon sudden release was assessed. For each test, limb placing scores were 0=no placing; 1=incomplete and/or delayed (>2 seconds) placing; or 2=immediate and complete placing. For each body side, the maximum summed visual limb placing score was 4 and the maximum summed tactile and proprioceptive limb placing score, including the platform test, was 10.
Rats were euthanized with an overdose of isoflurane. Blood samples for determination of electrolytes, pH, pCO2, glucose and hemoglobin (I-STAT; Abbott, Princeton, N.J.) were drawn from the vena cava and brains quickly removed and sectioned into eight 2-mm thick slices starting from the frontal pole. Slices were then fixed in 10% buffer formalin embedded in paraffin and sectioned at 5 Sections were stained with hematoxylin & eosin and scanned. […]

## Clc1ccccc1C(c1ccccc1)(c1ccccc1)n1cccn1 [TRAM-34, 1-[(2-chlorophenyl)diphenylmethyl]-1H-pyrazole]
[1]
  amount of activated (ED1+) microglia/macrophages in infarcted hemisphere: reduced
[1]; control 18.8±3.5%, mean±SEM, P=0.007
  mean infarct area, % of ipsolateral triphenyltetrazolium chloride positive hemisphere area: 6.6±1.9%
[2]; 10 mg/kg group, 12 h after reperfusion (start of treatment), vehicle 4.3±0.94
  neurological deficit, 14-score system: 4.8±0.63
[2]; 10 mg/kg group, 12 hours after reperfusion (start of treatment), vehicle 3.1±0.20
  neurological deficit, 4-score system: 3.3±0.50
[2]; 10 mg/kg, 196 h (=7 days) after reperfusion, vehicle 1.5±0.30, P=0.24
  neurological deficit, 4-score system: 0.8±0.10
[2]; 10 mg/kg, 196 h (=7 days) after reperfusion, vehicle 7.5±0.46, P=0.004
  neurological deficit, 14-score system: 9.8±0.01
[2]; 10 mg/kg, delayed administration
  microglia activation (ED1+ area): did not result in a significant reduction
[2]; 10 mg/kg, P=0.11, not significant
  brain shrinkage: tended to reduce
[2]; 10 mg/kg, P=0.143 cortex, 0.230 striatum
  number of TUNEL-positive cells in cortex and striatum: did not reach statistical significance
[2]; 10 mg/kg, mean±SEM, P=0.039
  mean infarct size (H&E defined lesion area): 11.3±2.8%
[2]; 40 mg/kg group, 12 h after reperfusion (start of treatment), vehicle 4.3±0.94
  neurological deficit, 14-score system: 3.4±0.46
[2]; 40 mg/kg group, 12 hours after reperfusion (start of treatment), vehicle 3.1±0.20
  neurological deficit, 4-score system: 3.0±0.80
[2]; 40 mg/kg, day-7 / 196 h after reperfusion, vehicle 1.5±0.30, P=0.02
  neurological deficit, 4-score system: 0.5 and 0.4±0.01
[2]; 40 mg/kg, day-7 / 196 h after reperfusion, vehicle 7.5±0.46, P<0.001
  neurological deficit, 14-score system: 11±0.38 and 12
[2]; 40 mg/kg, P=0.0067 cortex, 0.033 striatum
  number of apoptotic (TUNEL positive) cells in cortex and striatum: significantly reduced
[2]; 40 mg/kg, P=0.052
  average number of surviving NeuN+ neurons in the infarcted hemisphere: increase
[2]; 40 mg/kg, P=0.004
  mean infarct size (H&E defined lesion area): 8.1±1.9%
[2]; 40 mg/kg, vehicle 3770.6±594.2, P=0.03, mean±SEM
  ED1+ area in the infarcted hemisphere: 1632.6±363.75 pixels/mm^2
[2]; 10 or 40 mg/kg i.p. twice daily 7 days from 12 h after reperfusion, both doses
  reduction of infarct area (H&E, day-7): ~50%
